Assay results: PubChem BioAssay (NCI)
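Test compounds were applied to cells in 96-well plates for 48 hours at 5 doses. Abbreviation: GI50, concentration required for 50% inhibition of growth. TGI: total growth inhibition.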

Assays:
Experiment in all cases: growth of human tumour cells (NCI), 48 h
A498 renal = tested on: A498 renal
RPMI-8226 leukemia = tested on: RPMI-8226 leukemia
OVCAR-3 ovarian = tested on: OVCAR-3 ovarian
SF-539 CNS = tested on: SF-539 CNS
PC-3 prostate = tested on: PC-3 prostate
BT-549 breast = tested on: BT-549 breast
UACC-62 melanoma = tested on: UACC-62 melanoma
NCI-H522 lung = tested on: NCI-H522 lung
SNB-19 CNS = tested on: SNB-19 CNS
HL-60(TB) leukemia = tested on: HL-60(TB) leukemia

SMILES	TGI (A498 renal)	TGI (RPMI-8226 leukemia)	TGI (OVCAR-3 ovarian)	TGI (SF-539 CNS)	TGI (PC-3 prostate)	TGI (BT-549 breast)	TGI (UACC-62 melanoma)	TGI (NCI-H522 lung)	TGI (SNB-19 CNS)	TGI (HL-60(TB) leukemia)	GI50 (RPMI-8226 leukemia)	GI50 (OVCAR-3 ovarian)	GI50 (SF-539 CNS)	GI50 (PC-3 prostate)	GI50 (HL-60(TB) leukemia)	GI50 (BT-549 breast)	GI50 (UACC-62 melanoma)	GI50 (NCI-H522 lung)	GI50 (SNB-19 CNS)	GI50 (A498 renal)
O=C(O)c1ccccc1-c1ccccc1C(=O)Nc1ccc2c(c1)Cc1cc(F)ccc1-2	46 µM	82.8 µM	45.6 µM	> 100 µM	68.2 µM	40.2 µM	36.8 µM	63 µM	> 100 µM											
COC(=O)C12C3C4C5(C(=O)OC)C(C1C35C(=O)N(C(C)C)C(C)C)C42C(=O)N(C(C)C)C(C)C (configuration not stated)	> 50 µM	> 50 µM	> 50 µM	> 50 µM			> 50 µM	> 50 µM	> 50 µM	> 50 µM										
O=C(/C=C/c1c(O)ccc2ccccc12)c1ccc2ccccc2c1	> 100 µM	> 100 µM	> 100 µM	> 100 µM			> 100 µM	> 100 µM	> 100 µM	> 100 µM										
O=C(CCC(=O)Nc1cccc(Cl)c1)CC(=O)c1ccc(Cl)cc1		> 100 µM	> 100 µM	> 100 µM			> 100 µM	> 100 µM	> 100 µM	> 100 µM										
N#C/C(=C\c1ccc(O)c(O)c1)C(N)=O	> 100 µM	> 100 µM	86.1 µM	> 100 µM			> 100 µM	53.3 µM	> 100 µM	23.9 µM										
CC1=C(C(=O)Nc2c(C)cccc2C)C(c2ccccc2Cl)C(C(=O)Nc2c(C)cccc2C)=C(C)N1	> 100 µM	> 100 µM	> 100 µM	> 100 µM				> 100 µM	> 100 µM	> 100 µM										
Cc1ccc(N(CSc2ccc(Cl)cc2)CSc2ccc(Cl)cc2)cc1		6.46 µM	11.5 µM	2.59 µM	13.2 µM	1.54 µM	2.91 µM	3.18 µM	19.8 µM	3.65 µM	2.13 µM	2.75 µM	1.02 µM	0.787 µM	1.65 µM	0.334 µM	0.818 µM	1.49 µM	1.48 µM	
N#CC(/C(=N/NC(=O)C(=O)NN)C(=O)NC12CC3CC(CC(C3)C1)C2)c1ccccc1 (configuration not stated)	> 100 µM	> 100 µM	> 100 µM	> 100 µM			> 100 µM	> 100 µM	> 100 µM	> 100 µM										
CC(C)(C)N1CC2(CCCCC2)C1=O	> 100 µM	> 100 µM	> 100 µM	> 100 µM			> 100 µM	> 100 µM	> 100 µM	> 100 µM										
COc1ccc(C(=O)C(CO)Oc2ccccc2OC)cc1OC (configuration not stated)	> 100 µM	> 100 µM	> 100 µM	> 100 µM			> 100 µM	> 100 µM	> 100 µM	> 100 µM										
CC(=O)OCC1OC([S-])C(OC(C)=O)C(OC(C)=O)C1OC(C)=O.CC[PH+](CC)CC.CC[PH+](CC)CC.[Au].[Au] (configuration not stated)		0.761 µM	1.19 µM	0.624 µM			0.307 µM		0.552 µM	0.0214 µM	0.138 µM	0.376 µM	0.18 µM				0.119 µM		0.197 µM	
CCOC(=O)C1=C(C)N(N)C(=S)NC1c1ccc(C)cc1 (configuration not stated)	> 100 µM	> 100 µM	> 100 µM		> 100 µM	9.16 µM	> 100 µM	> 100 µM	> 100 µM		44.7 µM	22.4 µM		32.8 µM			23.3 µM	18.2 µM	73 µM	11.2 µM
CN=NN(C)C(=O)NC	> 100 µM	> 100 µM	> 100 µM	> 100 µM			> 100 µM	> 100 µM	> 100 µM	> 100 µM										
O=C(/C=C/c1ccccc1)/C=C/c1ccccc1	> 100 µM	> 100 µM	51.3 µM	45 µM			87.1 µM			78.8 µM										
Cc1[nH][nH]c(=O)c1C=Nc1ccc(-c2nc3ccccc3[nH]2)cc1		> 100 µM	36 µM	41.6 µM	> 100 µM	97.1 µM	38 µM	78.1 µM	57.3 µM	> 100 µM	38.2 µM	14.9 µM	22.2 µM	80.8 µM	22.6 µM	36.2 µM	15.5 µM	31.1 µM	22.6 µM	
COC(COC(=O)N1CCN(C=O)CC1)C1=C(N2CC2)C(=O)C(C)=C(N2CC2)C1=O (configuration not stated)	4.02 µM	1.52 µM	2.52 µM	0.342 µM	3.24 µM	1.97 µM	1.35 µM	0.26 µM	13.4 µM											
CC(=O)Oc1ccccc1C(=O)N=C1[Se]CCCN1C(=O)c1ccccc1OC(C)=O		6.13 µM		6.28 µM	7.24 µM	6.66 µM		3.42 µM		5.63 µM	2.42 µM		2.66 µM	2.34 µM	2.14 µM	2.29 µM		1.59 µM		
N#CC(C#N)=c1[nH]c2cccc3c2-c2c(cccc2c3=C(C#N)C#N)[nH]1	> 100 µM	> 100 µM	> 100 µM	> 100 µM			> 100 µM	> 100 µM	> 100 µM	> 100 µM										
O/N=C\c1c(O)ccc2ccccc12	> 100 µM	> 100 µM	66.7 µM	> 100 µM	> 100 µM		> 100 µM		> 100 µM	54.9 µM										
Nc1c(C(=O)N/N=C/c2ccc(-c3ccc(Cl)cc3)o2)cnn1-c1ccnc2c(C(F)(F)F)cccc12	> 100 µM	> 100 µM	> 100 µM	> 100 µM	> 100 µM		> 100 µM	> 100 µM	> 100 µM	> 100 µM	0.496 µM	> 100 µM	> 100 µM	35 µM	> 100 µM		> 100 µM	> 100 µM	> 100 µM	> 100 µM
